{
  "source": "PubChem BioAssay (NCI)",
  "assay_in_all_cases": "inhibition of tumour cell growth, NCI panel, 48 h",
  "key": {"PC-3 prostate": {"tested_on": "PC-3 prostate"}, "SF-539 CNS": {"tested_on": "SF-539 CNS"}, "COLO 205 colon": {"tested_on": "COLO 205 colon"}, "HCT-116 colon": {"tested_on": "HCT-116 colon"}, "NCI-H522 lung": {"tested_on": "NCI-H522 lung"}, "DU-145 prostate": {"tested_on": "DU-145 prostate"}, "KM12 colon": {"tested_on": "KM12 colon"}, "SR leukemia": {"tested_on": "SR leukemia"}, "MCF7 breast": {"tested_on": "MCF7 breast"}, "CCRF-CEM leukemia": {"tested_on": "CCRF-CEM leukemia"}, "SK-OV-3 ovarian": {"tested_on": "SK-OV-3 ovarian"}, "K-562 leukemia": {"tested_on": "K-562 leukemia"}, "UACC-257 melanoma": {"tested_on": "UACC-257 melanoma"}, "SNB-19 CNS": {"tested_on": "SNB-19 CNS"}, "MDA-MB-231 breast": {"tested_on": "MDA-MB-231 breast"}, "SK-MEL-28 melanoma": {"tested_on": "SK-MEL-28 melanoma"}, "TK-10 renal": {"tested_on": "TK-10 renal"}, "OVCAR-8 ovarian": {"tested_on": "OVCAR-8 ovarian"}, "A549 NSCLC": {"tested_on": "A549 NSCLC"}, "OVCAR-4 ovarian": {"tested_on": "OVCAR-4 ovarian"}, "NCI-H23 lung": {"tested_on": "NCI-H23 lung"}, "HOP-92 NSCLC": {"tested_on": "HOP-92 NSCLC"}, "LOX IMVI melanoma": {"tested_on": "LOX IMVI melanoma"}, "ACHN renal": {"tested_on": "ACHN renal"}, "MDA-MB-435": {"tested_on": "MDA-MB-435"}, "UACC-62 melanoma": {"tested_on": "UACC-62 melanoma"}, "HCT-15 colon": {"tested_on": "HCT-15 colon"}, "HS 578T breast": {"tested_on": "HS 578T breast"}, "SK-MEL-2 melanoma": {"tested_on": "SK-MEL-2 melanoma"}, "NCI-H460 lung": {"tested_on": "NCI-H460 lung"}, "SF-268 CNS": {"tested_on": "SF-268 CNS"}, "T-47D breast": {"tested_on": "T-47D breast"}, "HOP-62 NSCLC": {"tested_on": "HOP-62 NSCLC"}, "SW-620 colon": {"tested_on": "SW-620 colon"}, "MDA-N": {"tested_on": "MDA-N"}, "RPMI-8226 leukemia": {"tested_on": "RPMI-8226 leukemia"}, "SF-295 CNS": {"tested_on": "SF-295 CNS"}, "U251 CNS": {"tested_on": "U251 CNS"}, "NCI/ADR-RES ovarian": {"tested_on": "NCI/ADR-RES ovarian"}, "HL-60(TB) leukemia": {"tested_on": "HL-60(TB) leukemia"}, "M14 melanoma": {"tested_on": "M14 melanoma"}, "MOLT-4 leukemia": {"tested_on": "MOLT-4 leukemia"}, "EKVX NSCLC": {"tested_on": "EKVX NSCLC"}, "MALME-3M melanoma": {"tested_on": "MALME-3M melanoma"}, "NCI-H226 lung": {"tested_on": "NCI-H226 lung"}, "UO-31 renal": {"tested_on": "UO-31 renal"}, "A498 renal": {"tested_on": "A498 renal"}, "HT29 colon": {"tested_on": "HT29 colon"}, "IGROV1 ovarian": {"tested_on": "IGROV1 ovarian"}, "OVCAR-3 ovarian": {"tested_on": "OVCAR-3 ovarian"}, "HCC-2998 colon": {"tested_on": "HCC-2998 colon"}, "SNB-75 CNS": {"tested_on": "SNB-75 CNS"}, "SN12C renal": {"tested_on": "SN12C renal"}, "RXF 393 renal": {"tested_on": "RXF 393 renal"}, "OVCAR-5 ovarian": {"tested_on": "OVCAR-5 ovarian"}, "SK-MEL-5 melanoma": {"tested_on": "SK-MEL-5 melanoma"}, "786-0 renal": {"tested_on": "786-0 renal"}},
  "note": "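48-hour exposure; five concentrations; linearly interpolated endpoints. TGI: concentration producing complete growth inhibition.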",
  "data": [
    {"smiles": "CCN1CCN=c2c3cc(OC)ccc3n3cnc4ccc1c2c43", "values": [
      {"measurement": "TGI", "setting": "PC-3 prostate", "value": 800, "unit": "nM"},
      {"measurement": "TGI", "setting": "SF-539 CNS", "value": 413, "unit": "nM"},
      {"measurement": "TGI", "setting": "COLO 205 colon", "value": 606, "unit": "nM"},
      {"measurement": "TGI", "setting": "HCT-116 colon", "value": 194, "unit": "nM"},
      {"measurement": "TGI", "setting": "NCI-H522 lung", "value": 207, "unit": "nM"},
      {"measurement": "TGI", "setting": "DU-145 prostate", "value": 2730, "unit": "nM"},
      {"measurement": "TGI", "setting": "KM12 colon", "value": 1210, "unit": "nM"},
      {"measurement": "TGI", "setting": "SR leukemia", "value": 158, "unit": "nM"},
      {"measurement": "TGI", "setting": "MCF7 breast", "value": 993, "unit": "nM"},
      {"measurement": "TGI", "setting": "CCRF-CEM leukemia", "value": 747, "unit": "nM"},
      {"measurement": "TGI", "setting": "SK-OV-3 ovarian", "value": 1790, "unit": "nM"},
      {"measurement": "TGI", "setting": "K-562 leukemia", "value": 400, "unit": "nM"},
      {"measurement": "TGI", "setting": "UACC-257 melanoma", "value": 2050, "unit": "nM"},
      {"measurement": "TGI", "setting": "SNB-19 CNS", "value": 1950, "unit": "nM"},
      {"measurement": "TGI", "setting": "MDA-MB-231 breast", "value": 814, "unit": "nM"},
      {"measurement": "TGI", "setting": "SK-MEL-28 melanoma", "value": 1830, "unit": "nM"},
      {"measurement": "TGI", "setting": "TK-10 renal", "value": 6660, "unit": "nM"},
      {"measurement": "TGI", "setting": "OVCAR-8 ovarian", "value": 1400, "unit": "nM"},
      {"measurement": "TGI", "setting": "A549 NSCLC", "value": 670, "unit": "nM"},
      {"measurement": "TGI", "setting": "OVCAR-4 ovarian", "value": 1860, "unit": "nM"},
      {"measurement": "TGI", "setting": "NCI-H23 lung", "value": 985, "unit": "nM"},
      {"measurement": "TGI", "setting": "HOP-92 NSCLC", "value": 6320, "unit": "nM"},
      {"measurement": "TGI", "setting": "LOX IMVI melanoma", "value": 776, "unit": "nM"},
      {"measurement": "TGI", "setting": "ACHN renal", "value": 792, "unit": "nM"},
      {"measurement": "TGI", "setting": "MDA-MB-435", "value": 1310, "unit": "nM"},
      {"measurement": "TGI", "setting": "UACC-62 melanoma", "value": 975, "unit": "nM"},
      {"measurement": "TGI", "setting": "HCT-15 colon", "value": 432, "unit": "nM"},
      {"measurement": "TGI", "setting": "HS 578T breast", "value": 866, "unit": "nM"},
      {"measurement": "TGI", "setting": "SK-MEL-2 melanoma", "value": 808, "unit": "nM"},
      {"measurement": "TGI", "setting": "NCI-H460 lung", "value": 308, "unit": "nM"},
      {"measurement": "TGI", "setting": "SF-268 CNS", "value": 4690, "unit": "nM"},
      {"measurement": "TGI", "setting": "T-47D breast", "value": 3060, "unit": "nM"},
      {"measurement": "TGI", "setting": "HOP-62 NSCLC", "value": 924, "unit": "nM"},
      {"measurement": "TGI", "setting": "SW-620 colon", "value": 2080, "unit": "nM"},
      {"measurement": "TGI", "setting": "MDA-N", "value": 1110, "unit": "nM"},
      {"measurement": "TGI", "setting": "RPMI-8226 leukemia", "value": 558, "unit": "nM"},
      {"measurement": "TGI", "setting": "SF-295 CNS", "value": 1290, "unit": "nM"},
      {"measurement": "TGI", "setting": "U251 CNS", "value": 1050, "unit": "nM"},
      {"measurement": "TGI", "setting": "NCI/ADR-RES ovarian", "value": 489, "unit": "nM"},
      {"measurement": "TGI", "setting": "HL-60(TB) leukemia", "value": 483, "unit": "nM"},
      {"measurement": "TGI", "setting": "M14 melanoma", "value": 1040, "unit": "nM"},
      {"measurement": "TGI", "setting": "MOLT-4 leukemia", "value": 1570, "unit": "nM"},
      {"measurement": "TGI", "setting": "EKVX NSCLC", "value": 2330, "unit": "nM"},
      {"measurement": "TGI", "setting": "MALME-3M melanoma", "value": 1100, "unit": "nM"},
      {"measurement": "TGI", "setting": "NCI-H226 lung", "value": 718, "unit": "nM"},
      {"measurement": "TGI", "setting": "UO-31 renal", "value": 385, "unit": "nM"},
      {"measurement": "TGI", "setting": "A498 renal", "value": 735, "unit": "nM"},
      {"measurement": "TGI", "setting": "HT29 colon", "value": 1010, "unit": "nM"},
      {"measurement": "TGI", "setting": "IGROV1 ovarian", "value": 7620, "unit": "nM"},
      {"measurement": "TGI", "setting": "OVCAR-3 ovarian", "value": 525, "unit": "nM"},
      {"measurement": "TGI", "setting": "HCC-2998 colon", "value": 940, "unit": "nM"},
      {"measurement": "TGI", "setting": "SNB-75 CNS", "value": 1400, "unit": "nM"},
      {"measurement": "TGI", "setting": "SN12C renal", "value": 433, "unit": "nM"},
      {"measurement": "TGI", "setting": "RXF 393 renal", "value": 1050, "unit": "nM"},
      {"measurement": "TGI", "setting": "OVCAR-5 ovarian", "value": 929, "unit": "nM"},
      {"measurement": "TGI", "setting": "SK-MEL-5 melanoma", "value": 784, "unit": "nM"},
      {"measurement": "TGI", "setting": "786-0 renal", "value": 394, "unit": "nM"}
    ]}
  ]
}
